Measurements: patent US20090023637A1, “Methods for detecting and treating interstitial cystitis” (priority 2006, published 2009)

Key:
rat bladder [1] = assay: Evaluation of bladder overactivity in rodents (urodynamics), Example 4; assay type: in vivo, Sprague-Dawley rats; conditions: intravesical infusion; PS 30 mg/mL, toxic factor 15 mg/mL, or PPS 10 mg/ml + toxic factor 15 mg/ml, followed by 400 mM KCl for 30 minutes
Text: (§1) After a few days of acclimatization, three groups (n=9 each) of adult male Sprague-Dawley rats (325-350 g) underwent urodynamics evaluation of bladder hyperactivity before and after intravesical infusion of a test substance (PS, urinary toxic factor, or toxic factor plus PPS) followed by intravesical KCl.^4
The procedure was as follows: The rats were anesthetized with a subcutaneous injection of urethane (1.2 g/Kg) and a 1 cm incision made along the centerline of the lower ventral abdomen. […] During the continuous filling bladder cystometry, the pressure was recorded with the transducer using the program LabView (National Instruments, TX).
To induce hyperactivity, the bladder was first infused with warm 0.9% saline (37° C.) at 40 μL/min (2.4 mL/hr) and at least 20 minutes of stable voiding cycles recorded during infusion. The pressure threshold (PT, pressure at which voiding initializes) and peak pressure (PP, pressure maximum or amplitude of bladder contractions) were recorded. Frequency of contractions and inter-contractile interval (ICI) were recorded, along with the percentage of non-voiding contractions (% NVC, contractions where the PP is greater than 2 cm H2O and less than the TP, thus not resulting in a void). […]

rat bladder [2] = assay: Evaluation of bladder overactivity in rodents (urodynamics, KCl infusion after test substance), Example 1; assay type: in vivo, Sprague-Dawley rats; conditions: intravesical infusion; TF 15 mg/mL or THP 10 mg/ml + TF 15 mg/ml 1:1, followed by 400 mM KCl for 30 minutes
Text: as §1, with “two” for “three”, “(TF” for “(PS, urinary toxic factor,”, “TF” for “toxic factor”, “THP)” for “PPS)”, “KCl.^8 The procedure was as follows.” for “KCl.^4”
The rats were anesthetized with a subcutaneous injection of urethane (1.2 g/Kg) and a 1 cm incision was made along the centerline of the lower ventral abdomen. Once the bladder was exteriorized, a 22 gauge (0.7 mm) catheter (Intracath, Becton-Dickinson, OH) was inserted into the bladder dome and sutured in place using a purse string suture with 4.0 tapered prolene suture. The bladder was returned to the abdomen, with the line escaping through the incision. […] During the continuous filling bladder cystometry, the pressure was recorded with the transducer using the program LabView (National Instruments, TX).
To induce hyperactivity, the bladder was first infused with warm (37° C.) 0.9% saline or 400 mM KCl (29.8 mg/mL, Abbott Laboratories, IL) at 40 μL/min (2.4 mL/hr) and at least 20 minutes of stable voiding cycles were recorded during infusion. The pressure threshold (PT, pressure at which voiding initializes) and peak pressure (PP, pressure maximum or amplitude of bladder contractions) were recorded. […]

rat bladder [3] = assay: Evaluation of bladder overactivity in rodents (urodynamics), Example 2; assay type: in vivo, Sprague-Dawley rats; conditions: intravesical infusion; TF 15 mg/mL alone or mixed 1:1 with unmodified THP or THP-d 10 mg/ml, followed by 400 mM KCl for 30 min
Description: After a few days of acclimatization, adult male SD rats underwent urodynamics evaluation of bladder hyperactivity before and after intravesical infusion of a test substance^8 (TF or TF plus unmodified THP or TF plus THP-d) followed by intravesical KCl. The procedure for the in vivo rat study was performed as described previously.^23
After baseline measurements of pressure threshold, peak pressure, frequency of contractions, inter-contractile interval, and percentage of nonvoiding contractions (NVC) were recorded as previously described,^23 rats were infused with the test solution. One group of animals received an infusion of TF (15 mg/mL). To test the effect of desialylation on the ability of THP to attenuate the bladder hyperactivity induced by TF and KCl, second and third groups of animals received an infusion of a mixture of unmodified THP or THP-d 10 mg/ml and TF (15 mg/ml) mixed in a ratio of 1:1.
Infusion of the test solution was followed by infusion of 400 mM KCl for 30 min^8 and urodynamics measurements were repeated.

[4] = system: human bladder cells (HTB4); assay: Cytotoxicity assay, unmodified versus desialylated THP, Example 2
Description: The TF obtained from 2 different pooled urine samples (TF1, TF2) was tested for cytotoxicity using the CellTiter96 Aqueous One Solution Proliferation Assay™ (Promega Corp, Madison, Wis.). Rat urothelial target cells and human HTB4 urothelial cells were plated in 96-well tissue culture plates (Nunclon™) in triplicate (50,000 cells/well). Cells had been maintained in Ham's-M199 tissue culture media supplemented with 10% fetal calf serum (FCS)+antibiotics (Pen-Strep).
For cytotoxicity assay, cells were harvested from seed flasks, washed free of trypsin-EDTA, and resuspended in DME media (without phenol red indicator) −1% FCS (assay media). An aliquot of the cell suspension was counted in a hemocytometer and diluted with assay media to a concentration of 0.5×10^6 cells/ml, from which 100 μl (5×10^4 cells) were added to each well in a 96-well microtiter plate. […] Dose response data was determined beforehand for the TF preparations. […]
After overnight incubation at 37° C., the target cells were washed twice with DME alone (200 μl/well) and fresh DME added to each well (90 μl). Then a tetrazolium compound (MTS-Owen's Reagent) combined with an electron coupling reagent (PES) was added (10 μl/well) per kit protocol and absorbance measured in a plate reader after 30 min incubation at 490 nm and at 630 nm after blanking the plate to DME media containing the tetrazolium compound. […]

[5] = THP zeta potential (mV) measurements; assay type: physicochemical; conditions: 0.01M NaCl buffer, pH 7.0 at 25° C.; n=6 in each group
Description: Surface charge properties (zeta potential) are measured for THP samples from patients (n=6) and controls (n=6). THP (Biomedical Technologies, Inc.) and fetuin and asialofetuin (Sigma Chemical Co.) standards (50 μg) are similarly measured. Zeta potential and size measurements are made with a Zetasizer Nano ZS instrument and a CGS-3 Goniometer system (Malvern Instruments Inc., Southborough, Mass.) with ancillary software version 4.0. All zeta potential measurements are conducted on rehydrated samples in 0.01M NaCl buffer, pH 7.0 at 25° C., after centrifugation followed by filtration ([…]) to remove any aggregates. Measurements are made in triplicate and the results analyzed by Student's t test for significance.

Compound: [Cl-].[K+] [KCl]
- NVC/minute (nonvoiding contractions) (rat bladder [1]): 0.25 ± 0.064 NVC/minute
- NVC/minute (nonvoiding contractions) (rat bladder [2]): 0.25 ± 0.064 NVC/minute
- NVC/minute (nonvoiding contractions) (rat bladder [3]): 0.25 ± 0.064 NVC/minute

Compound: THP-d: THP desialylated by mild acid hydrolysis in 2.5M acetic acid, 3 hr at 82° C.
- Average cytotoxicity (%) ([4]; HTB4 cells 5 × 10^4/well, THP or THP-d mixed with TF 60 min, overnight incubation, relative to media controls): 13.4%

Compound: control THP: THP isolated from urine of healthy control subjects
- zeta potential [5]: −28.0±2.4 mV

Compound: protamine sulfate
- NVC/minute (nonvoiding contractions) (rat bladder [1]): 1.733 ± 0.55 NVC/minute
- Cytotoxicity LD50 ([4]; footnote to Table 3, known cytotoxic agent): †Cytotoxicity of protamine sulfate, a known cytotoxic agent: LD50 = ~20 μg
